Results published in patent US12459953B2, “TREM2 modulators” (Muna Therapeutics ApS, priority 2024, dated 2025).
pEC50: −log10 of the molar value.

Target: T1, Human TREM2 (Homo sapiens, UniProt Q9NZC2)
T1 construct: expressed in transfected cells
Assay: Human TREM2 activity by cellular phosphorylation of Syk (AlphaLISA SureFire Ultra p-SYK) in HEK293/DAP12+TREM2 stable cell line
Format: cell-based
Settings: HEK293/DAP12+TREM2 cells; for Emax: maximal response relative to the maximal response of the reference agonist (8-(4-chloro-2-fluorophenyl)-2,3-dimethyl-6-[(2S)-2-(1-methyl-1H-pyrazol-4-yl)morpholin-4-yl]-3H,4H-[1,3]diazino[5,4-d]pyrimidin-4-one); for pEC50: phospho-Syk AlphaScreen signal, 30 min incubation, concentration giving 50% of maximal response
Source text: Human TREM2, in vitro Measurement of Triggering Receptor Expressed on Myeloid Cells 2 activity using cellular phosphorylation of Spleen Tyrosine Kinase (“Syk”) Assay
HEK-293 cells were co-transfected with separate plasmids encoding TREM2 and DAP12 to generate a stable cell line. After antibiotic selection, functional clone pool analysis and two successive limiting dilutions, the final clone
“HEK293/DAP12+TREM2” underwent a qPCR analysis and a pharmacological validation.
TREM2 signaling through DAP12 was monitored in the HEK293/DAP12+TREM2 stable cell line by measuring the phosphorylation levels of the Syk kinase using the commercially available AlphaLISA SureFire Ultra p-SYK (Tyr525/526) Assay Kit (PerkinElmer #ALSU-PSYK), based on the Perkin Elmer AlphaScreen/AlphaLISA technology.
Compounds are transferred to the test plate and tested in full dose response, 8 concentrations in quadruplicate data points. Compound serial dilutions were performed at Cybi-Felix instrument in 100% DMSO and the dose response curves were assembled in automated fashion in 384MPT at Hamilton STARIet instrument. All the stock solutions were prepared at 20 mM in 100% DMSO. For compounds testing, the starting concentration was 100 μM, dilution steps 1:6. A different concentration's range was adapted for compound's activity based on the preliminary results. Finally, a 384MPT reformatted for all compounds at 8 concentrations, quadruplicates, was used as “mother to child” process with a CyBi®-Well dispenser in which 1 μL of each compound was moved into a destination plate pre-filled with 65.6 μL of EMEM cell culture medium (BIOWHITTAKER_cat.BE12-125F), thus obtaining 3× concentrated compounds working solution. In columns 1-2 and 23-24 the control wells were added. In particular, dose response curves of a reference control agonist were included in column 1 and 24 as reference control agonist (Reference control agonists used include Human TREM2 polyclonal Antibody AF1828: R&D Systems; Human TREM2 monoclonal Antibody MAB1828: R&D Systems). The dose response curves were tested starting at 30 μM, dilution step 1:6. Both “source” compound plate and “destination” compound plate were barcoded and a relationship between the two plates was thus generated.
HEK293/DAP12+TREM2 cells were cultured in EMEM medium supplemented with IX Penicillin/Streptomycin (BIOWHITTAKER_cat.DE17-602E), ULTRAGLUTAMINE I 200 mM, 10% Fetal Bovine Serum plus antibiotics referred to as “HEK293 Culture Medium”. The day before the experiment, cells were detached by gentle wash with DPBS, followed by 5 min incubation at 37° C. with Trypsin solution. Cells were then diluted in HEK293 Culture Medium without antibiotics, counted and seeded into 384-well poly-D-Lysine coated microplates black/clear bottom (GREINER 781946) at a density of 10,000 cells/well in 25 μL/well by the use of a MATRIX WellMate dispenser. Plates were placed into a humidified cell culture incubator at 37° C. with 5% CO2 until the experimental day. 20-24 hours after seeding mature medium was removed and replaced with 10 μL/well of EMEM cell medium supplemented with 0.1% Pluronic F-68 non-ionic surfactant (Thermofisher, 24040032), referred to as “Assay Buffer”, using the CyBi®-Well instrument. Then 5 μL/well of Assay Buffer containing 3× concentrated test compounds or the reference control agonist (in 0.5% final DMSO concentration) were added to the cells with the CyBi®-Well instrument. Cell plates were incubated for 30 min into a humidified cell culture incubator at 37° C. with 5% CO2,then the medium was removed by manually discard. 20 μL/well of lysis buffer were dispensed using the CyBi®-Well instrument and plates were incubated for 10 min at room temperature on a plate shaker (350 rpm). Then, 10 μL/well of lysate were transferred to the Alpha plates. The CyBi®-Well instrument was used to dispense 5 μL/well of AlphaLISA Acceptor Bead Solution in IX Immunoassay buffer (Perkin Elmer ALOOOF). […]

T1 sequence (Q9NZC2 19-230): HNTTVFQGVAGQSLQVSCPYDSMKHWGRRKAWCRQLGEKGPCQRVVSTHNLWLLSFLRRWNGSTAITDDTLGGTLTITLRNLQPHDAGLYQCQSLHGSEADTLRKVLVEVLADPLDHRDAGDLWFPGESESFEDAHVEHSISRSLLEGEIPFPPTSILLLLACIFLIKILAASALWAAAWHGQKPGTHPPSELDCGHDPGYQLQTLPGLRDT
T1 sequence (O43914 22-113 partner): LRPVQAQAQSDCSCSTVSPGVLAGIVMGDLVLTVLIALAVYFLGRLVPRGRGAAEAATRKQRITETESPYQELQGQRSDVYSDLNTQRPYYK

SMILES | Emax [%] | pEC50
C[C@@H]1CN(c2nc(-c3ccc(F)cc3F)c3ncn(C)c(=O)c3n2)C[C@H](c2cnn(C3CC3)c2)O1 | 75 to 110 | 7.00 to 8.00
Cc1nc2c(-c3ccc(F)cc3F)nc(N3C[C@@H](C)O[C@@H](c4cnn(C5CC5)c4)C3)nc2c(=O)n1C | 75 to 110 | 8.00 to 9.00
COc1ccc(-c2nc(N3C[C@@H](C)O[C@@H](c4cnn(C5CC5)c4)C3)nc3c(=O)n(C)c(C(F)(F)F)nc23)c(F)c1 (single isomer, unassigned) [Example 4] | 75 to 110 | > 9.00
C[C@@H]1CN(c2nc(-c3ccc(C#N)cc3F)c3nc(C(F)(F)F)n(C)c(=O)c3n2)C[C@H](c2cnn(C3CC3)c2)O1 (single isomer, unassigned) [Example 5A] | > 110 | > 9.00
C[C@H]1CN(c2nc(-c3ccc(C#N)cc3F)c3nc(C(F)(F)F)n(C)c(=O)c3n2)C[C@@H](c2cnn(C3CC3)c2)O1 (single isomer, unassigned) [Example 5B] | > 110 | 8.00 to 9.00
C[C@@H]1CN(c2nc(-c3ccc(C#N)cc3F)c3nc(C(F)(F)F)n(C)c(=O)c3n2)C[C@H](c2cnn(C)c2)O1 (single isomer, unassigned) [Example 6A] | 75 to 110 | 8.00 to 9.00
C[C@H]1CN(c2nc(-c3ccc(C#N)cc3F)c3nc(C(F)(F)F)n(C)c(=O)c3n2)C[C@@H](c2cnn(C)c2)O1 (single isomer, unassigned) [Example 6B] | 75 to 110 | 8.00 to 9.00
Cn1cc([C@H]2CN(c3nc(-c4ccc(C#N)cc4F)c4nc(C(F)(F)F)n(C)c(=O)c4n3)CC(F)(F)O2)cn1 (single isomer, unassigned) [Example 7A] | > 110 | > 9.00
Cn1cc([C@@H]2CN(c3nc(-c4ccc(C#N)cc4F)c4nc(C(F)(F)F)n(C)c(=O)c4n3)CC(F)(F)O2)cn1 (single isomer, unassigned) [Example 7B] | 75 to 110 | 8.00 to 9.00
COc1cc([C@@H]2CN(c3nc(-c4ccc(C#N)cc4F)c4nc(C(F)(F)F)n(C)c(=O)c4n3)CCO2)ccn1 (single isomer, unassigned) [Example 8A] | 75 to 110 | 7.00 to 8.00
COc1cc([C@H]2CN(c3nc(-c4ccc(C#N)cc4F)c4nc(C(F)(F)F)n(C)c(=O)c4n3)CCO2)ccn1 (single isomer, unassigned) [Example 8B] | 75 to 110 | > 9.00
COc1cc([C@@H]2CN(c3nc(-c4ccc(C#N)cc4F)c4nc(C(F)(F)F)n(C)c(=O)c4n3)C[C@H](C)O2)ccn1 (single isomer, unassigned) [Example 9A] | 75 to 110 | > 9.00
COc1cc([C@H]2CN(c3nc(-c4ccc(C#N)cc4F)c4nc(C(F)(F)F)n(C)c(=O)c4n3)C[C@@H](C)O2)ccn1 (single isomer, unassigned) [Example 9B] | 75 to 110 | > 9.00
C[C@@H]1CN(c2nc(-c3ccc(C#N)cc3)c3nc(C(F)(F)F)n(C)c(=O)c3n2)C[C@H](c2cnn(C)c2)O1 (single isomer, unassigned) [Example 10A] | 75 to 110 | > 9.00
C[C@H]1CN(c2nc(-c3ccc(C#N)cc3)c3nc(C(F)(F)F)n(C)c(=O)c3n2)C[C@@H](c2cnn(C)c2)O1 (single isomer, unassigned) [Example 10B] | 75 to 110 | 8.00 to 9.00
C[C@@H]1CN(c2nc(-c3ccc(C#N)cc3)c3nc(C(F)(F)F)n(C)c(=O)c3n2)C[C@H](c2cnn(C3CC3)c2)O1 (single isomer, unassigned) [Example 11A] | 75 to 110 | > 9.00
C[C@H]1CN(c2nc(-c3ccc(C#N)cc3)c3nc(C(F)(F)F)n(C)c(=O)c3n2)C[C@@H](c2cnn(C3CC3)c2)O1 (single isomer, unassigned) [Example 11B] | 75 to 110 | 8.00 to 9.00
COc1cc([C@H]2CN(c3nc(-c4ccc(F)cc4F)c4nc(C(F)(F)F)n(C)c(=O)c4n3)CCO2)ccn1 (single isomer, unassigned) [Example 12A] | 75 to 110 | > 9.00
COc1cc([C@@H]2CN(c3nc(-c4ccc(F)cc4F)c4nc(C(F)(F)F)n(C)c(=O)c4n3)CCO2)ccn1 (single isomer, unassigned) [Example 12B] | 75 to 110 | 7.00 to 8.00
C[C@@H]1CN(c2cc3c(=O)n(C)c(C(F)(F)F)nc3c(-c3ccc(C#N)cc3F)n2)C[C@H](c2cnn(C3CC3)c2)O1 (single isomer, unassigned) [Example 13A] | 75 to 110 | > 9.00
C[C@H]1CN(c2cc3c(=O)n(C)c(C(F)(F)F)nc3c(-c3ccc(C#N)cc3F)n2)C[C@@H](c2cnn(C3CC3)c2)O1 (single isomer, unassigned) [Example 13B] | 75 to 110 | 8.00 to 9.00
Cn1cc([C@H]2CN(c3cc4c(=O)n(C)c(C(F)(F)F)nc4c(-c4ccc(C#N)cc4F)n3)CC(F)(F)O2)cn1 (single isomer, unassigned) [Example 14A] | 75 to 110 | 8.00 to 9.00
Cn1cc([C@@H]2CN(c3cc4c(=O)n(C)c(C(F)(F)F)nc4c(-c4ccc(C#N)cc4F)n3)CC(F)(F)O2)cn1 (single isomer, unassigned) [Example 14B] | 75 to 110 | 7.00 to 8.00
Cn1cc([C@H]2CN(c3nc(-c4ccc(C#N)cc4F)c4nc(C(F)(F)F)n(C)c(=O)c4n3)CCO2)cn1 [Example 1, (S)-3-fluoro-4-(7-methyl-2-(2-(1-methyl-1H-pyrazol-4-yl)morpholino)-8-oxo-6-(trifluoromethyl)-7,8-dihydropyrimido[5,4-d]pyrimidin-4-yl)benzonitrile] | 75 to 110 | > 9.00
COc1ccc(-c2nc(N3CCO[C@@H](c4cnn(C)c4)C3)nc3c(=O)n(C)c(C(F)(F)F)nc23)c(F)c1 [Example 2, (S)-8-(2-fluoro-4-methoxyphenyl)-3-methyl-6-(2-(1-methyl-1H-pyrazol-4-yl)morpholino)-2-(trifluoromethyl)pyrimido[5,4-d]pyrimidin-4(3H)-one] | 75 to 110 | 8.00 to 9.00
Cn1cc([C@H]2CN(c3nc(-c4ccc(C#N)cc4)c4nc(C(F)(F)F)n(C)c(=O)c4n3)CCO2)cn1 [Example 3, (S)-4-(7-methyl-2-(2-(1-methyl-1H-pyrazol-4-yl)morpholino)-8-oxo-6-(trifluoromethyl)-7,8-dihydropyrimido[5,4-d]pyrimidin-4-yl)benzonitrile] | < 75 | 8.00 to 9.00
Cn1cc([C@H]2CN(c3cc4c(=O)n(C)c(C(F)(F)F)nc4c(-c4ccc(C#N)cc4F)n3)CCO2)cn1 [Example 15, (S)-3-fluoro-4-(3-methyl-6-(2-(1-methyl-1H-pyrazol-4-yl)morpholino)-4-oxo-2-(trifluoromethyl)-3,4-dihydropyrido[3,4-d]pyrimidin-8-yl)benzonitrile] | 75 to 110 | 8.00 to 9.00
